Common to all, as to settings: incubation time: 72 h
Experiment [1] concerns HCC1937. Briefly: normalised response (% of control), CellTox Green; higher = less cell death (100 = DMSO, 0 = benzethonium chloride kill control). In a few lines:
(§1)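 The table gives the normalised signal for a single concentration in each entry. Breast cancer cell lines were seeded (20 µl suspension) into 384-well plates holding compound at 5 concentrations in 10-fold steps over a compound-specific 10,000-fold range and incubated 72 h, then read for CellTox Green fluorescence (485/520 nm) and CellTiter-Glo luminescence. Normalisation on each plate used 0.1 % DMSO (100) and a positive kill control (0).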

For experiment [2], the system named is CAL-148. The description is as above. The procedure, abridged: as §1
Experiment [3] concerns MFM-223. Described as above. In a few lines: as §1
In experiment [4] the test system is DU-4475. Described as above. The procedure, abridged: as §1
Experiment [5] deals with CAL-85-1. Described as above. The procedure, abridged: as §1
In experiment [6] the test system is MDA-MB-453. The experiment is described as above. The procedure, abridged:
as §1

For experiment [7], the system named is HDQ-P1. Briefly: normalised viability (% of control), CellTiter-Blue; higher = more viable cells (about 100 = DMSO control). In a few lines:
(§2)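 Each value is normalised viability at a single listed concentration of the series. Breast cancer cell lines in 384-well plates were incubated 72 h with compound and read by CellTiter-Blue fluorescence at 560/590 nm, with vehicle set to 100 and a positive kill control to 0 on every plate.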
A general note: Resazurin is reduced to fluorescent resorufin, in cell work by metabolically active cells.

The test system of experiment [8] is CAL-148. Described as above. The procedure, abridged:
as §2

Experiment [9] deals with CAL-51. Described as above. In a few lines:
as §2

The subject of experiment [10] is DU-4475. The description is as above. The procedure, abridged:
as §2

For experiment [11], the system named is CAL-85-1. The description is as above. The procedure, abridged:
as §2

The subject of experiment [12] is MDA-MB-453. The experiment is described as above. In a few lines: as §2
Another experiment deals with MDA-MB-468. The experiment can be described thus: drug sensitivity score (DSS), CellTox Green (DSS (AUC-based score)); higher = stronger drug effect (viability inhibition or cytotoxicity); extreme values may be limits of the assay. In a few lines:
(§3)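 Each compound occupied 5 concentrations in 10-fold steps over its own 10,000-fold range in 384-well plates, into which breast cancer cell lines were seeded as 20 µl suspension. Following 72 h of incubation, CellTox Green fluorescence (485/520 nm) was measured, and CellTiter-Glo luminescence was measured after 10 min at room temperature. Plates were individually normalised to 0.1 % DMSO and a positive kill control. From the area under the fitted dose-response curve, a drug sensitivity score was calculated.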

A further experiment relates to BT-549. The experiment is described as above. The procedure, abridged: as §3
Experiment [13] deals with HDQ-P1. The experiment is described as above. The procedure, abridged: as §3
The subject of another experiment is HCC1599. The description is as above. The procedure, abridged:
as §3

In the next experiment the test system is MDA-MB-231. Described as above. The procedure, abridged: as §3
The test system of experiment [14] is HCC1937. The experiment is described as above. The procedure, abridged: as §3
Experiment [15] concerns CAL-148. The description is as above. In a few lines:
as §3

The test system of experiment [16] is CAL-51. The experiment is described as above. In a few lines:
as §3

Experiment [17] concerns MFM-223. Described as above. In a few lines: as §3
Another experiment concerns CAL-120. Described as above. The procedure, abridged:
as §3

For the next experiment, the system named is BT-474. Described as above. In a few lines:
as §3

For experiment [18], the system named is CAL-85-1. The description is as above. In a few lines:
as §3

The next experiment deals with MDA-MB-436. The description is as above. In a few lines:
as §3

Experiment [19] deals with MDA-MB-453. The experiment is described as above. In a few lines: as §3

`NC1(c2ccc(-c3nc4ccn5c(=O)[nH]nc5c4cc3-c3ccccc3)cc2)CCC1` [MK-2206] (1000 nM): the normalised response came to 108% in the experiment on HCC1937 [1]; 11.1% in the experiment with CAL-148 [2]; 95.9% in the experiment on MFM-223 [3]; 109% in the experiment with DU-4475 [4]; 69% in the experiment with CAL-85-1 [5]; 96.7% with MDA-MB-453 [6]. In addition, the normalised viability stood at 86.4% in the experiment with HDQ-P1 [7]; 36.8% in the experiment on CAL-148 [8]; 45.3% with CAL-51 [9]; 53.5% in the experiment with DU-4475 [10]; 58.4% with CAL-85-1 [11]; 11% in the experiment on MDA-MB-453 [12].

Turning to `O=C(c1cc(Cc2n[nH]c(=O)c3ccccc23)ccc1F)N1CCN(C(=O)C2CC2)CC1` [Olaparib] (10000 nM), the normalised response with HCC1937 [1] was 99.8%; in the experiment on CAL-148 [2], 75.3%; in the experiment on MFM-223 [3], 102%; in the experiment with DU-4475 [4], 98.5%; with CAL-85-1 [5], 105%; in the experiment on MDA-MB-453 [6], 109%. Moreover, the normalised viability with HDQ-P1 [7] was determined as 96.5%; in the experiment on CAL-148 [8], 56.1%; in the experiment on CAL-51 [9], 39.3%; with DU-4475 [10], 71.7%; with CAL-85-1 [11], 80.7%; in the experiment with MDA-MB-453 [12], 78.1%.

Consider `COc1cc2c(N3CCN(C(=O)Nc4ccc(OC(C)C)cc4)CC3)ncnc2cc1OCCCN1CCCCC1` [Tandutinib] (1000 nM), for which the normalised response came to 93.2% in the experiment with HCC1937 [1]; 93.5% with CAL-148 [2]; 89% in the experiment on MFM-223 [3]; 98.6% with DU-4475 [4]; 105% in the experiment with CAL-85-1 [5]; 101% with MDA-MB-453 [6]. Further, the normalised viability with HDQ-P1 [7] was 128%; in the experiment on CAL-148 [8] it was 71.1%; in the experiment with CAL-51 [9], 58%; in the experiment with DU-4475 [10] it was 58.4%; with CAL-85-1 [11] it was 93%; in the experiment with MDA-MB-453 [12], 92.9%.

As to `C[C@@H](C(=O)O)c1ccc(-c2ccccc2)c(F)c1` [Tarenflurbil] (10000 nM), the normalised response came out at 109% in the experiment with HCC1937 [1]; 101% in the experiment on CAL-148 [2]; 92.6% with MFM-223 [3]; 101% in the experiment on DU-4475 [4]; 110% with CAL-85-1 [5]; 103% in the experiment with MDA-MB-453 [6]. For the same compound, the normalised viability was 129% with HDQ-P1 [7]; 89.9% in the experiment on CAL-148 [8]; 111% in the experiment with CAL-51 [9]; 95.1% with DU-4475 [10]; 91.4% in the experiment with CAL-85-1 [11]; 84% in the experiment on MDA-MB-453 [12].

On to `CCc1c(C(=O)C(N)=O)c2c(OCC(=O)O)cccc2n1Cc1ccccc1` [Varespladib], for which the drug sensitivity score with MDA-MB-468, in the experiment on BT-549, with HDQ-P1 [13], in the experiment with HCC1599, with MDA-MB-231 and in the experiment on HCC1937 [14] was 0 each time. Further, the drug sensitivity score in the experiment with CAL-148 [15], in the experiment with CAL-51 [16], in the experiment on MFM-223 [17], in the experiment with CAL-120, with BT-474 and in the experiment with CAL-85-1 [18] was 0 in each case. Also, the drug sensitivity score in the experiment with MDA-MB-436 and in the experiment on MDA-MB-453 [19] was 0 each time.

These data come from the supplement of paper PMC4862054.
